The numbers were not newly measured in patent US7423028B2, “Injectable pharmaceutical compositions comprising sodium diclofenac and β-cyclodextrin” (Ibsa Institut Biochemique S.A., priority 2004, dated 2008), which cites them from elsewhere.

On to `O=C([O-])Cc1ccccc1Nc1c(Cl)cccc1Cl.[Na+]` [sodium diclofenac, 2-[(2,6-dichlorophenyl)amino]benzeneacetic acid monosodium salt], for which the solubility in water entry is given as “sparingly soluble in water”.
